Source: US9364493B2, “Methods and compositions for enhancing the uptake of therapeutic agents by target cells” (Tsinghua University, priority 2011, dated 2016)

Legend:
[1] = tested on: Human microvascular endothelial cells (HMECs); test: Internalization of ES and its derivatives in blood vessel endothelial cells (Western Blotting); type: cell-based; conditions: for effect on ES internalization in endothelial cells: tested in place of NT: AMB 25-50 μg/mL, methyl-β-cyclodextrin 1-2 mM, filipin 2.5-5 μg/mL; for increase of ES internalization: then ES 5 μg/mL 30 min, vs cells without NT
Source text: Human microvascular endothelial cells (HMECs) were from ATCC (accession number CRL 10636). Mouse lymphatic endothelial cells (mLEC) were isolated via digesting peritoneal lymphoma induced by incomplete Freund's adjuvant injection (Zhuo W. et al, Journal of Pathology; 222:249-260). […] (SEQ ID NO:5) at N-terminal, the sequence of which is SEQ ID NO.3 or SEQ ID NO.4 because the first amino acid residue M will be randomly deleted when expressed in E. Coli. ES was obtained from Protgen Ltd., the amino acid sequence of which is SEQ ID NO.1 or SEQ ID NO.2 because the first amino acid residue M will be randomly deleted when expressed in E. Coli. Monomethoxy PEG propionaldehyde (mPEG-ALD) with an average molecular weight of 20 kDa (Jenkem Technology CO., Ltd.,) was used as the PEG reagent for specifically modifying the α-amino group at N-terminal of a protein. PEG-ES and PEG-Endu were prepared by Protgen Ltd. according to the instructions provided in the PEG reagent kit. Monoclonal antibody against ES was purchased from Oncogene Science, Inc. NT and other reagents were purchased from Sigma-Aldrich Co.
The endothelial cells were cultured to reach 90% confluence, and then pre-treated with DMEM medium (Hyclone) containing NT as follows. NT stock solution was added to the medium to a final concentration of 0 μg/mL, 25 μg/mL, or 50 μg/mL, and the culture was then incubated in a 5% CO2 atmosphere at 37° C. for 20 min for NT pre-treatment. After pre-treatment, ES stock solution (5 mg/ml) was added to the medium to a final concentration of 5 μg/mL. The culture was then incubated in a 5% CO2 atmosphere at 37° C. for 30 min to allow the internalization of ES by the endothelial cells. After removing the medium, the endothelial cells were washed with ice-cold PBS for 3 times and then collected. The ES internalization in whole cell lysate, cytosolic fraction, and nuclear fraction was examined by Western Blotting, compared with the cells without NT treatment.
Some other agents which share the same action mechanism as NT were also tested in place of in this example, such as AMB (25-50 μg/mL), methyl-β-cyclodextrin (1-2 mM), and filipin (2.5-5 μg/mL).
Other therapeutic agents which share the same action mechanism as ES can also be used in this example, such as PEG-modified ES. For this purpose, ES was modified with monomethoxy PEG propionaldehyde (mPEG-ALD) of 20 kDa which specifically modifies the N-terminal of a protein, and the product (PEG-ES) was an ES protein conjugated with one PEG molecule at the N-terminal α-amino group of ES.

p38 MAPK pathway = test: p38 MAPK signaling pathway activation in endothelial cells (Western Blotting); type: cell-based; conditions: NT 50 μg/mL 20 min and/or ES 5 μg/mL 30 min; vs negative control
Method: (§1) In this example, endothelial cells were separated into four groups: (1) negative control group, neither NT treatment, nor ES treatment; (2) NT group, treatment with NT at 50 μg/mL for 20 min, without ES treatment; (3) ES group, treatment with ES at 5 μg/mL for 30 min, without NT treatment; (4) NT plus ES group, treatment with NT at 50 μg/mL for 20 min, followed by treatment with ES at 5 μg/mL for 30 min. After treatment with the same method as described in Example 1, cells were collected and the ERK and p38 MAPK pathways were examined.

[2] = tested on: Human lung adenocarcinoma A549 tumor; test: A549 lung adenocarcinoma tumor growth in nude mice; type: in vivo; conditions: NT 6 mg/kg i.p. daily alone, fourteen daily injections; vs control group
Method: Human lung adenocarcinoma A549 tumor cells (ATCC accession number CCL-185) at exponential growth were subcutaneously inoculated into 6-8 week-old nude mice (Vital River Laboratory Animal Technology Co., Ltd). When the tumor volume reached 100 mm^3, the tumor bearing nude mice were separated into four groups: (1) negative control, treatment with saline; (2) NT group, treatment with NT (6 mg/kg, intraperitoneal injection, daily), without ES treatment; (3) ES group, treatment with ES (12 mg/kg, intraperitoneal injection, daily), without NT treatment; (4) NT plus ES group, combined treatment with NT (6 mg/kg, intraperitoneal injection, daily) and ES (12 mg/kg, intraperitoneal injection, daily). After fourteen daily injections, mice were sacrificed, and the weight and volume of the tumors were measured.

[3] = tested on: tumor blood vessel endothelial cells (CD31) in A549 tumors; test: Tumor blood vessel formation assay (CD31 immunofluorescence), A549 mice; type: in vivo, nude mice; conditions: NT 6 mg/kg plus ES 12 mg/kg vs ES alone, CD31 blood vessel area
Source text: Tumor blood vessel formation assay: Tumors from A549 mice were resected, fixed and sectioned. Samples were detected with primary antibody against CD31 (the marker of tumor blood vessel endothelial cells) and FITC-labeled secondary antibody (Santa Cruz), and then observed with Nikon A1 laser scanning confocal microscope (LSCM). The sectional areas of blood vessels in randomly selected fields (400×) were quantified and averaged with the software of the LSCM system.

HMEC = test: Transwell cell migration assay; type: cell-based, human; conditions: NT 50 μg/mL alone; 10 ng/mL VEGF, 6 hours; vs negative control
Method: Cell migration assay: HMEC (2×10^4 cells per well) were seeded into DMEM (Hyclone) containing 0.5% FBS (Hyclone) and 10 ng/mL VEGF (PeproTech) on the upper layer of Transwell chambers (8 μm pores, Costar). ES (40 μg/mL) or NT (50 μg/mL) was added into both the upper and lower layers, and then the chambers were incubated in a 5% CO2 atmosphere at 37° C. for 6 hours to allow cell migration. […] The numbers of the cells migrated into the lower layer were counted and mean values were calculated. Experiments were performed in triplicate and each experiment was repeated twice.
In this example, endothelial cells were separated into four groups: (1) negative control group, neither NT treatment, nor ES treatment; (2) NT group, treatment with NT at 50 μg/mL, without ES treatment; (3) ES group, treatment with ES at 40 μg/mL, without NT treatment; (4) NT plus ES group, combined treatment with NT at 50 μg/mL and ES at 40 μg/mL. […] ES treatment (ES group) inhibited the transwell migration of endothelial cells by 61%.

[4] = tested on: EGFR-expressing A549 cells; test: EGFR monoclonal antibody (Cetuximab) internalization in tumor cells (Western Blotting); type: cell-based, human; conditions: NT 25 or 50 μg/mL pre-treatment 20 min, then Cetuximab 5 μg/mL 30 min; positively correlated to NT concentrations
Method: EGFR-expressing A549 cells at exponential growth were cultured to reach 90% confluence and then pre-treated with DMEM medium containing NT as follows. NT stock solution was added to the medium to a final concentration of […], 25 μg/mL, or 50 μg/mL, and the culture was then incubated in a 5% CO2 atmosphere at 37° C. for 20 min for NT pre-treatment. After pre-treatment, EGFR monoclonal antibody (Cetuximab, Merck) stock solution (5 mg/ml) was added to the medium to a final concentration of 5 μg/mL. The culture was then incubated in a 5% CO2 atmosphere at 37° C. for 30 min to allow the internalization of EGFR monoclonal antibody by the […]. After treatment, the medium was removed, and the endothelial cells were washed with ice-cold PBS for 3 times and then collected. The EGFR monoclonal antibody internalization in cells was examined by Western Blotting, compared with EGFR monoclonal antibody internalization in cells without NT treatment.

H22 liver cancer = H22 liver cancer mouse model; type: in vivo
[5] = tested on: Mouse lymphatic endothelial cells (mLEC); test: ES internalization in lymphatic endothelial cells (Western Blotting); type: cell-based; conditions: then ES 2 μg/mL 15 min
Source text: Human microvascular endothelial cells (HMECs) were from ATCC (accession number CRL 10636). Mouse lymphatic endothelial cells (mLEC) were isolated via digesting peritoneal lymphoma induced by incomplete Freund's adjuvant injection (Zhuo W. et al, Journal of Pathology; 222:249-260). Endu was obtained from Simcere-Medgenn Bio-pharmaceutical Co., Ltd. Endu is a recombinant ES containing an additional amino acid sequence (M)GGSHHHHH (SEQ ID NO:5) at N-terminal, the sequence of which is SEQ ID NO.3 or SEQ ID NO.4 because the first amino acid residue M will be randomly deleted when expressed in E. Coli. ES was obtained from Protgen Ltd., the amino acid sequence of which is SEQ ID NO.1 or SEQ ID NO.2 because the first amino acid residue M will be randomly deleted when expressed in E. Coli. Monomethoxy PEG propionaldehyde (mPEG-ALD) with an average molecular weight of 20 kDa (Jenkem Technology CO., Ltd.,) was used as the PEG reagent for specifically modifying the α-amino group at N-terminal of a protein. PEG-ES and PEG-Endu were prepared by Protgen Ltd. according to the instructions provided in the PEG reagent kit. Monoclonal antibody against ES was purchased from Oncogene Science, Inc. NT and other reagents were purchased from Sigma-Aldrich Co.
The mLECs were pre-treated with DMEM (Hyclone) containing 0, 75, 150, or 300 μg/mL NT in a 5% CO2 atmosphere at 37° C. for 20 min. The cells were then incubated with culture media containing ES (final concentration of 2 μg/mL) in a 5% CO2 atmosphere at 37° C. for 15 min. After treatment, the cells were washed with PBS for 3 times, and then collected. The ES internalization in cells treated with NT at various concentrations was examined by Western Blotting.

ERK pathway = test: ERK signaling pathway activation in endothelial cells (Western Blotting); type: cell-based; conditions: NT 50 μg/mL 20 min and/or ES 5 μg/mL 30 min; vs negative control
Method: as §1

[6] = NT treatment, same dosage and treatment time, positively correlated to NT concentration

methyl-β-cyclodextrin
effect on ES internalization in endothelial cells [1]: can increase ES internalization

C[C@@H]1[C@H](O)[C@@H](C)/C=C/C=C/CC/C=C/C=C/C=C/C=C/C(O[C@H]2O[C@H](C)[C@@H](O)[C@H](N)[C@@H]2O)CC2O[C@](O)(CC(O)C(O)CCC(O)CC(O)CC(O)CC(=O)O[C@H]1C)CC(O)C2C(=O)O (stereo partly shown) [NT, Nystatin]
effect on activation of p38 MAPK pathway (p38 MAPK pathway): did not influence | effect on tumor growth (in words) [2]: did not influence tumor growth | effect on inhibitory efficacy of ES on tumor blood vessel formation [3]: potentiated | effect on transwell migration of endothelial cells (in words) (HMEC): did not substantially influence | effect on Cetuximab internalization in the cells [4]: significantly increased | effect on antiangiogenesis activity of ES (H22 liver cancer; tumor blood vessel area): enhancement effect | effect on antitumor activity of ES (H22 liver cancer; tumor weight): enhancement effect | increase of ES internalization in mLECs ([5]; NT 75 μg/mL pre-treatment 20 min): 16 fold | increase of ES internalization in mLECs ([5]; NT 150 μg/mL pre-treatment 20 min): 32 fold | increase of ES internalization in mLECs ([5]; NT 300 μg/mL pre-treatment 20 min): 78 fold | effect on activation of ERK pathway (ERK pathway): did not influence | increase of ES internalization ([1]; NT 25 μg/mL pre-treatment 20 min): about 2 folds | increase of ES internalization ([1]; NT 50 μg/mL pre-treatment 20 min): ~15 folds | effect on PEG-ES internalization in blood vessel endothelial cells ([1]; NT treatment, same PEG-ES dosage and treatment time, positively correlated to NT concentration): increased | effect on Endu internalization in endothelial cells [1, 6]: increased | effect on PEG-Endu internalization in endothelial cells [1, 6]: increased

C[C@@H]1[C@H](O)[C@@H](C)/C=C/C=C/C=C/C=C/C=C/C=C/C=C/[C@H](O[C@@H]2O[C@H](C)[C@@H](O)[C@H](N)[C@@H]2O)C[C@@H]2O[C@](O)(C[C@@H](O)C[C@@H](O)[C@H](O)CC[C@@H](O)C[C@@H](O)CC(=O)O[C@H]1C)C[C@H](O)[C@H]2C(=O)O [AMB, Amphotericin B]
effect on ES internalization in endothelial cells [1]: can increase ES internalization

CCCCC[C@@H](O)[C@H]1C(=O)O[C@H](C)[C@@H](O)/C=C/C=C/C=C/C=C/C=C(\C)[C@@H](O)C[C@H](O)C[C@H](O)C[C@H](O)C[C@H](O)C[C@H](O)C[C@@H]1O [filipin]
effect on ES internalization in endothelial cells [1]: can increase ES internalization
